# Assays:
# Type in all cases: in vivo, Heraclides andraemon
# H. andraemon [1] = assay: Egg laying of Piper amalago var. amalago plant bred H. andraemon given a choice of plants on which to lay (Example 8); details: eggs laid on citrus plant sprayed with the substance, Piper amalago var. amalago-reared butterflies, choice of 4 plants
# Text: H. andraemon larvae were reared on Piper amalago var. amalago plant. When they pupated and were ready to lay eggs, the butterflies were given the choice of plants on which to lay eggs: unsprayed lime plants, unsprayed Piper amalago var. amalago plants, citrus plant sprayed with Piper amalago var. amalago plant oil, and citrus plant sprayed with d-limonene. The egg laying was permitted to continue until the butterflies ceased laying eggs.
# H. andraemon [2] = assay: Egg laying of lime (citrus) plant bred H. andraemon given a choice of plants on which to lay (Example 7); details: eggs laid on Piper amalago var. amalago plants sprayed with the substance, lime plant-reared butterflies, choice of 4 plants
# Experimental: The aerosol mixture for application to citrus plant and Piper amalago var. amalago plant materials was prepared by combining lime plant oil, Piper amalago var. amalago plant oil, d-limonene, or a combination thereof, with an alkane hydrocarbon mixture consisting of 28% butane and 72% propane. The aerosol was filled to a concentration of, e.g., 0.25% by weight of Piper amalago var. amalago plant oil in the hydrocarbon mixture or, e.g., 0.45% by weight of lime plant oil in the hydrocarbon mixture.
# H. andraemon larvae were reared on lime plant. When they pupated and were ready to lay eggs, they were given the choice of plants on which to lay eggs: unsprayed lime plants, unsprayed Piper amalago var. amalago plants, Piper amalago var. amalago plants sprayed with lime plant oil, and Piper amalago var. amalago plants sprayed with d-limonene. Egg laying was permitted to continue until the butterflies ceased laying eggs. Nearly 100% of the eggs laid hatched into larvae.
# Table 5 summarizes the results of an experiment in which the faithfulness of egg laying on the species of plant on which the butterflies were reared was confirmed. In this experiment, both lime plant oil and d-limonene were sprayed onto Piper amalago var. amalago plant to determine whether the butterflies discriminated between the two.
# H. andraemon [3] = assay: H. andraemon egg laying on lime plant seedling and P. aduncum, choice of four plants (Example 9); details: P. aduncum cuttings sprayed twice daily with 0.15% d-limonene aerosol; choice of 4 plants
# Text: Butterflies were induced to lay on host plant Piper aduncum plant sprayed with lime plant oil, or lime plant sprayed with Piper aduncum plant oil. Piper aduncum shoots were collected in Andrew, Jamaica, and 297.35 g of leaves were placed in a Clevenger-type extractor and extracted with boiling water. Once extracted according to the methods described in Example 2, 0.8919 g of a clear oil with a minty-like odor was obtained, a yield of 0.30% by weight.
# Four Heraclides andraemon pupae were placed in the cage previously described in Example 1. Three pupae hatched into adults, two males and a female, which were allowed to mate and lay eggs. They were given a choice of four types of plants on which to lay: unsprayed Piper aduncum cuttings; Piper aduncum cuttings sprayed with d-limonene; unsprayed lime seedlings; and lime seedlings sprayed with the Piper aduncum emulsion. These plants, all with young leaves, were placed around the cage.
# Cuttings from the Piper aduncum shoots with young leaves were used to attempt to induce butterflies to feed and lay eggs on a Piper aduncum plant treated with lime plant extract. The Piper aduncum cuttings were sprayed twice daily for eight days, once in the morning and once in the afternoon, with a d-limonene aerosol formulation. The d-limonene aerosol formulation was prepared as a hydrocarbon mixture of 72% propane and 28% butane, with 0.15% d-limonene. […]
smiles,measurement,setting,value
C=C(C)[C@H]1CC=C(C)CC1 [d-limonene],% of eggs laid,H. andraemon [1],13.47%
same,No. of eggs laid,H. andraemon [1]; total 193 eggs,26
same,% of eggs laid,H. andraemon [2],25.00%
same,No. of eggs laid,H. andraemon [2]; total 208 eggs,52
same,% of eggs laid,H. andraemon [3],0%
same,No. of Eggs after 5 Days,H. andraemon [3],0

# — patent publication US10362781B2, “Methods of controlling the breeding behavior of butterflies” (University of the West Indies, a Regional Institution, …, priority 2010, dated 2019)
